Experimental data reported in article PMC8805605, “Discovery of Dimeric Arylsulfonamides as Potent ADAM8 Inhibitors” (ACS Medicinal Chemistry Letters, 2021).

Test system: MDA-MB-231 cells
Assay: Matrigel invasion assay
Format: cell-based
Conditions: MDA-MB-231 cells pretreated with inhibitors for 24 h; control 69.07 ± 5.26%
Method: Figure 5 Effects of compounds 1–3 and JG26 on cancer cell invasion. MDA-MB-231 cells were pretreated with inhibitors for 24 h prior to the assay. Boxplot of invaded cells in %. Results are obtained from three independent experiments with counting of five randomly chosen viewing fields. One-way ANOVA was performed to determine statistical significance with * p < 0.05 and *** p < 0.001. […]
Thincerts of […] pore size, translucent (Greiner BioOne) were transferred into 24-well plates. Each insert was loaded with 75 µL Matrigel (BD Biosciences), 1:1 diluted with serum-free medium DMEM.
After 1 hour, thincerts were turned upside down and 25000 MDA-MB-231 cells, pretreated with vehicle (DMSO) or 20 µM inhibitors (JG26 and compounds 1-3 in DMSO) for 24 hours in DMEM/0.5 % FCS were seeded on the lower side and incubated for 3-4 hours so that cell can adhere to the membrane. To induce cell invasion, DMEM/20% FCS was applied to the upper chamber in order to […]
form a concentration gradient. After 18 hours, cells were fixed with 3.7 % paraformaldehyde and stained with 4’,6-Diamidin-2-phenylindol (DAPI) to detect cell nuclei. Quantification of cell invasion was performed using a confocal microscope by stacked imaging. Cell nuclei present in the upper and the lower chamber were counted in 5 randomly chosen viewing fields and the amount of invasion was calculated in percent as the ratio between invaded cells/non-invaded cells x 100. Experiments were repeated 3 times, counting 5 random viewing fields per well, respectively.
Protein extraction and Western Blot analysis
After 48 h, total protein extraction was performed by detaching the cells with a cell scraper. Cells were washed with PBS, resuspended in 50 μL RIPA (50 mM HEPES pH 7.4; 150 mM NaCl; 1% (v/v) NP-40; 0.5% (w/v) Natriumdeoxycholate; 0.1% (w/v) SDS; 10 mM Phenantrolin; 10 mM EDTA; PierceTM Protease Inhibitor Mini Tablets, EDTA-free, Thermo Scientific; PierceTM Phosphatase Inhibitor Mini Tablets, Thermo Scientific) and incubated for 30 min on ice. […]
2% (w/v) SDS; 10% (w/v) Glycerol; 5% (v/v) ß-Mercaptoethanol; 0.01% (w/v) Bromphenol-Blue) for 5 min. The proteins were separated by 10% SDS-PAGE and subsequently transferred on a nitrocellulose membrane (GE Healthcare). The membrane was then blocked with 5% (w/v) milk powder (MP) in TBST (50 mM Tris, pH 7.5; 150 mM NaCl; 0.1% (w/v) Tween-20) for 1 h and probed with the following primary antibodies: anti-beta Tubulin (NB600-936, Novus Biological, 1:2000), anti- […]
Cell Signaling, 1:2000) and anti-pAkt (4060, Cell Signaling, 1:2000) at 4°C overnight. After washing the 3x with TBST, the membrane was incubated with horseradish peroxidase-conjugated secondary antibodies for 1 h (abcam, 1:5000) followed by a repeated washing step. […]

SMILES | Invaded cells [%]
O=C(CCCNC(=O)c1cccc(C(=O)NCCCC(=O)NCCC[C@@H](NS(=O)(=O)c2ccc(OCc3cc(Br)cc(Br)c3)cc2)C(=O)NO)c1)NCCC[C@@H](NS(=O)(=O)c1ccc(OCc2cc(Br)cc(Br)c2)cc1)C(=O)NO [Compound 1] | 57.25 ± 7.24
O=C(NCCC[C@@H](NS(=O)(=O)c1ccc(OCc2cc(Br)cc(Br)c2)cc1)C(=O)NO)c1cccc(C(=O)NCCC[C@@H](NS(=O)(=O)c2ccc(OCc3cc(Br)cc(Br)c3)cc2)C(=O)NO)c1 [Compound 2] | 50.8 ± 11.4
NC(=O)NCCC[C@@H](NS(=O)(=O)c1ccc(OCc2cc(Br)cc(Br)c2)cc1)C(=O)NO [JG26, reference compound] | 59.87 ± 12.27
O=C(NCCC[C@@H](NS(=O)(=O)c1ccc(OCc2cc(Br)cc(Br)c2)cc1)C(=O)NO)NCCC[C@@H](NS(=O)(=O)c1ccc(OCc2cc(Br)cc(Br)c2)cc1)C(=O)NO [Compound 3] | 52.9 ± 9.14
